Data from ChEMBL document CHEMBL1129004, “Synthesis and in vitro cytotoxicity of cis-(glycolato-O,O)-[2-substituted-(4R,5R)-4,5-bis(aminomethyl)-1,3-dioxolane]platinum (II)” (Bioorg Med Chem Lett, 1996).

Columns and labels:
Type in all cases: functional, cell-based
PC-9 = test: Compound was tested in vitro for cytotoxic activity against PC-9 human non-small cell lung cancer cell line by MTT assay
[1] = tested on: KATO III stomach cancer cell line; test: Compound was tested in vitro for cytotoxic activity against KATO III human stomach cancer cell line by MTT assay
PC-14 = test: Compound was tested in vitro for cytotoxic activity against PC-14 human non-small cell lung cancer cell line by MTT assay
MKN-45 = test: Compound was tested in vitro for cytotoxic activity against MKN-45 human stomach cancer cell line by MTT assay

Sequence	IC50 (PC-9) [µM]	IC50 [1] [µM]	IC50 (PC-14) [µM]	IC50 (MKN-45) [µM]
CISPLATIN	5	5.2	1.5	3.7
CARBOPLATIN	60.5	49.7	9.7	32.4
